Earlier results as cited in patent publication US10988420B2, “Nanoparticles of layered double hydroxides containing non-polar compounds of plant origin, and method for the separation and selective release of said compounds” (UNIVERSIDAD DE GUADALAJARA, priority 2015, dated 2021).

Settings: lycopene not encapsulated; prior art (Meléndez-Martinez 2004)

SMILES: CC(C)=CCC/C(C)=C/C=C/C(C)=C/C=C/C(C)=C/C=C/C=C(C)/C=C/C=C(C)/C=C/C=C(\C)CCC=C(C)C [lycopene]
- temperature at which lycopene is decomposed: 100-150 °C
